According to US12240816B2, “Deuterated compounds and uses thereof” (Aldeyra Therapeutics, Inc., priority 2015, dated 2025):
“Also recorded” adds a separate entry of the source. Read-outs that look alike come from different tables or passages of the source.

Assays:
[1] = target: enzyme and uptake assay panel targets (Table 36) (Homo sapiens, UniProt Q13370); assay: biochemical; type: biochemical; conditions: PDE3B (h); 1.0E−05M
[2] = target: enzyme and uptake assay panel targets (Table 36) (Homo sapiens, UniProt P08253); assay: biochemical; type: biochemical; conditions: MMP-2 (h); 1.0E−05M
[3] = target: enzyme and uptake assay panel targets (Table 36) (Homo sapiens, UniProt P23219); assay: biochemical; type: biochemical; conditions: COX1(h); 1.0E−05M
enzyme and uptake assay panel targets (Table 36) (Homo sapiens, UniProt P23219), sequence (P23219 24-599): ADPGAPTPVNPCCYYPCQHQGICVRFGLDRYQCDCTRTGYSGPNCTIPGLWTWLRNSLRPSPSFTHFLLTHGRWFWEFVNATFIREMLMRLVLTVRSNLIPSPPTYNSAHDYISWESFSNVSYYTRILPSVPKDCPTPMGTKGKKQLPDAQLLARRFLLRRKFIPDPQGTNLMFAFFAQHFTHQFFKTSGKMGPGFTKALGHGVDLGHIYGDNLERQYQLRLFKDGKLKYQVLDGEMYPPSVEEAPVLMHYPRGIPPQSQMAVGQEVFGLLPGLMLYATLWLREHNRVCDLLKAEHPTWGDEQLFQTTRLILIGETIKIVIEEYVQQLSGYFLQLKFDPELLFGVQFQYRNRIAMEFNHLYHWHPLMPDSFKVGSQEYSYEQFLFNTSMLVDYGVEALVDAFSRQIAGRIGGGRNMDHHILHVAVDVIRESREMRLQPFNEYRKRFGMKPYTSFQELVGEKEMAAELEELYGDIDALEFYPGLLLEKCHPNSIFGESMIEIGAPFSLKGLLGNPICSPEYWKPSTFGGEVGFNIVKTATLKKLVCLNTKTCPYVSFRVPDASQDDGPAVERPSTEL

[4] = target: enzyme and uptake assay panel targets (Table 36) (Homo sapiens, UniProt P35354); assay: biochemical; type: biochemical; conditions: COX2(h); 1.0E−05M
enzyme and uptake assay panel targets (Table 36) (Homo sapiens, UniProt P35354), sequence (P35354 18-604): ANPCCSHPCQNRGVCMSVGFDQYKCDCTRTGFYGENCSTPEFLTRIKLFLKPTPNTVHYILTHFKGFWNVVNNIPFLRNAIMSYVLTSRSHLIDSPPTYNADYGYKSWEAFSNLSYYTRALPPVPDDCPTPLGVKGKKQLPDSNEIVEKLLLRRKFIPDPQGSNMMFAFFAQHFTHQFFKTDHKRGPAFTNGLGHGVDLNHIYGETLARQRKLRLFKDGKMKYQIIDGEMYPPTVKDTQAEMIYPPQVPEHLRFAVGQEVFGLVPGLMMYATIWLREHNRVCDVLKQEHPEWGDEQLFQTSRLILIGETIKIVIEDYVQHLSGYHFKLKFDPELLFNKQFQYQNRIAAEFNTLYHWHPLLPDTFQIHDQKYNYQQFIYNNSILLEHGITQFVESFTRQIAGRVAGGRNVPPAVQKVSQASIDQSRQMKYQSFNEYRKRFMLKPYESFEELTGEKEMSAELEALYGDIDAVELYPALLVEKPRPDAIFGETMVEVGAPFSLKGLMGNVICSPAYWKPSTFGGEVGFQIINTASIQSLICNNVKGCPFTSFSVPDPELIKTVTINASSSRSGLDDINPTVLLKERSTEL

[5] = test system: T1, enzyme and uptake assay panel targets (Table 36); assay: biochemical; type: biochemical; conditions: ATPase (Na+/K+); 1.0E−05M
T1 construct: other: ATPase (Na+/K+); 1.0E−05M; nH; porcine cerebral cortex

[6] = target: enzyme and uptake assay panel targets (Table 36) (Homo sapiens, UniProt Q9BYF1); assay: biochemical; type: biochemical; conditions: ACE-2 (h); 1.0E−05M; flag INTER: Test compound interferes with the assay detection method
[7] = target: enzyme and uptake assay panel targets (Table 36) (Homo sapiens, UniProt P12821); assay: biochemical; type: biochemical; conditions: ACE (h); 1.0E−05M; flag INTER: Test compound interferes with the assay detection method
[8] = target: enzyme and uptake assay panel targets (Table 36) (Homo sapiens, UniProt P07948); assay: biochemical; type: biochemical; conditions: Lyn A kinase (h); 1.0E−05M
enzyme and uptake assay panel targets (Table 36) (Homo sapiens, UniProt P07948), sequence (P07948 whole entry): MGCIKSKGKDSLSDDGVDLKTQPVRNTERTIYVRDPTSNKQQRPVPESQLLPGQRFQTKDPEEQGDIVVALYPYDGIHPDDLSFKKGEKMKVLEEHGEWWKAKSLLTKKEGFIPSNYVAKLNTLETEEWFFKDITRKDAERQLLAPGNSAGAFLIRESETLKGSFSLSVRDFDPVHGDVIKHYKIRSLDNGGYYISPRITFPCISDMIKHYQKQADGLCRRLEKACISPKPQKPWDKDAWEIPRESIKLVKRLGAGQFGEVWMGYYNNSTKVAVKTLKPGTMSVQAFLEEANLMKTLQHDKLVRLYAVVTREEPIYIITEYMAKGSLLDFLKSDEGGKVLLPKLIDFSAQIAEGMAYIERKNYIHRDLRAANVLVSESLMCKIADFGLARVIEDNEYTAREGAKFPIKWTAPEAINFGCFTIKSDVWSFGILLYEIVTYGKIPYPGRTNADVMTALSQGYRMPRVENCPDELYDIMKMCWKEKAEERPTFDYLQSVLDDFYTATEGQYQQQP

[9] = target: enzyme and uptake assay panel targets (Table 36) (Human immunodeficiency virus type 1 group M subtype B, UniProt P04585); assay: biochemical; type: biochemical; conditions: HIV-1 protease; 1.0E−05M
[10] = target: enzyme and uptake assay panel targets (Table 36) (Homo sapiens, UniProt Q16539); assay: biochemical; type: biochemical; conditions: p38α kinase (h); 1.0E−05M
enzyme and uptake assay panel targets (Table 36) (Homo sapiens, UniProt Q16539), sequence (Q16539 whole entry): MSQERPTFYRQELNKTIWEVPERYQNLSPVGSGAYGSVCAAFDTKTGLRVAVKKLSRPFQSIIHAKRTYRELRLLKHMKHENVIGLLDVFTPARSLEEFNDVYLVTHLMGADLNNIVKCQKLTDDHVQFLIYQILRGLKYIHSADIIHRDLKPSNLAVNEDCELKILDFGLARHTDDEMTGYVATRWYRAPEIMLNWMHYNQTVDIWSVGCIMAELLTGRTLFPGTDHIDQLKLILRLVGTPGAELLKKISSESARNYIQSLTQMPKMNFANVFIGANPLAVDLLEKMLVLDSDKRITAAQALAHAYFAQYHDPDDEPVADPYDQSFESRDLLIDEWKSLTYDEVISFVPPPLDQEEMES

[11] = target: T2, enzyme and uptake assay panel targets (Table 36) (Bos taurus, UniProt P80457); assay: biochemical; type: biochemical; conditions: xanthine oxldase/superoxide 02 ^−scavenging, 1.0E−05M
T2 construct: other: xanthine oxidase/superoxide 02^−scavenging; nH; other: xanthine oxldase/superoxide 02 ^−scavenging; 1.0E−05M; ot; purified xanthine oxidase from bovine milk

[12] = target: enzyme and uptake assay panel targets (Table 36) (Mus musculus, UniProt P29477); assay: biochemical; type: biochemical; conditions: inducible NOS; 1.0E−05M
[13] = target: enzyme and uptake assay panel targets (Table 36) (Homo sapiens, UniProt P27338); assay: biochemical; type: biochemical; conditions: MAO-B (h) recombinant enzyme; 1.0E−05M
enzyme and uptake assay panel targets (Table 36) (Homo sapiens, UniProt P27338), sequence (P27338 whole entry): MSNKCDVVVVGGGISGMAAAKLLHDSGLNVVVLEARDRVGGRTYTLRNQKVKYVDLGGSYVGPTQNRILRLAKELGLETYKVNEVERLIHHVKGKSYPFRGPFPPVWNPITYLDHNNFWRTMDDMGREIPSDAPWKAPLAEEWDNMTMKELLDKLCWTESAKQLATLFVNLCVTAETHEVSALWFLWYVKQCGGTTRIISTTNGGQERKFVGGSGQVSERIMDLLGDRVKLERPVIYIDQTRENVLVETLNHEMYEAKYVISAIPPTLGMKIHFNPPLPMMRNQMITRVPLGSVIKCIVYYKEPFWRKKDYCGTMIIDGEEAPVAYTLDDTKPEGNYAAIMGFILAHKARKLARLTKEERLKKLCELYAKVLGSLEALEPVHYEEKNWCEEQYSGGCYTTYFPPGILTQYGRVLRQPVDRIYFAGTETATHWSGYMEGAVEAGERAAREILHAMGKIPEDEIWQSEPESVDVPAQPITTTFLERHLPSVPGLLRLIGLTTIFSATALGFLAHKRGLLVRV

[14] = test system: enzyme and uptake assay panel targets (Table 36); assay: biochemical; type: biochemical; conditions: COMT (catechol-O-methyl transferase); 1.0E−05M; flag INTER: Test compound interferes with the assay detection method
[15] = target: enzyme and uptake assay panel targets (Table 36) (Homo sapiens, UniProt Q9UQM7); assay: biochemical; type: biochemical; conditions: CaMK2α (h); 1.0E−05M
[16] = target: enzyme and uptake assay panel targets (Table 36) (Homo sapiens, UniProt P03956); assay: biochemical; type: biochemical; conditions: MMP-1 (h); 1.0E−05M; flag INTER: Test compound interferes with the assay detection method
enzyme and uptake assay panel targets (Table 36) (Homo sapiens, UniProt P03956), sequence (P03956 100-469): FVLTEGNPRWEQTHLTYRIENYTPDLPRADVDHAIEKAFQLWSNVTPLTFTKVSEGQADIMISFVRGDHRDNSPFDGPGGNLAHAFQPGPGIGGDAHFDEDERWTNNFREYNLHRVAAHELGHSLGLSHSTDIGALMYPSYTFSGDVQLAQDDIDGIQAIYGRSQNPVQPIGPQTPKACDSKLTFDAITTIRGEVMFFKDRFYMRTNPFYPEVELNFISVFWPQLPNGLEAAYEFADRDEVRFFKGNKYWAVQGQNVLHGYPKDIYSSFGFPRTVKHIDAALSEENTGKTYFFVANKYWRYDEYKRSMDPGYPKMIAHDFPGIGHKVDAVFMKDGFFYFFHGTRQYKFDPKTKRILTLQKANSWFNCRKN

[17] = target: enzyme and uptake assay panel targets (Table 36) (Homo sapiens, UniProt P06213); assay: biochemical; type: biochemical; conditions: IRK (h)(InsR); 1.0E−05M
[18] = target: enzyme and uptake assay panel targets (Table 36) (Homo sapiens, UniProt P56817); assay: biochemical; type: biochemical; conditions: BACE-1 (h) (β-secretase); 1.0E−05M; flag INTER: Test compound interferes with the assay detection method
[19] = target: enzyme and uptake assay panel targets (Table 36) (Homo sapiens, UniProt P43403); assay: biochemical; type: biochemical; conditions: ZAP70 kinase (h); 1.0E−05M
[20] = target: enzyme and uptake assay panel targets (Table 36) (Homo sapiens, UniProt P09917); assay: biochemical; type: biochemical; conditions: 5-lipoxygenase (h); 1.0E−05M
[21] = target: enzyme and uptake assay panel targets (Table 36) (Homo sapiens, UniProt Q08499); assay: biochemical; type: biochemical; conditions: PDE4D2 (h); 1.0E−05M
enzyme and uptake assay panel targets (Table 36) (Homo sapiens, UniProt Q08499), sequence (Q08499 whole entry): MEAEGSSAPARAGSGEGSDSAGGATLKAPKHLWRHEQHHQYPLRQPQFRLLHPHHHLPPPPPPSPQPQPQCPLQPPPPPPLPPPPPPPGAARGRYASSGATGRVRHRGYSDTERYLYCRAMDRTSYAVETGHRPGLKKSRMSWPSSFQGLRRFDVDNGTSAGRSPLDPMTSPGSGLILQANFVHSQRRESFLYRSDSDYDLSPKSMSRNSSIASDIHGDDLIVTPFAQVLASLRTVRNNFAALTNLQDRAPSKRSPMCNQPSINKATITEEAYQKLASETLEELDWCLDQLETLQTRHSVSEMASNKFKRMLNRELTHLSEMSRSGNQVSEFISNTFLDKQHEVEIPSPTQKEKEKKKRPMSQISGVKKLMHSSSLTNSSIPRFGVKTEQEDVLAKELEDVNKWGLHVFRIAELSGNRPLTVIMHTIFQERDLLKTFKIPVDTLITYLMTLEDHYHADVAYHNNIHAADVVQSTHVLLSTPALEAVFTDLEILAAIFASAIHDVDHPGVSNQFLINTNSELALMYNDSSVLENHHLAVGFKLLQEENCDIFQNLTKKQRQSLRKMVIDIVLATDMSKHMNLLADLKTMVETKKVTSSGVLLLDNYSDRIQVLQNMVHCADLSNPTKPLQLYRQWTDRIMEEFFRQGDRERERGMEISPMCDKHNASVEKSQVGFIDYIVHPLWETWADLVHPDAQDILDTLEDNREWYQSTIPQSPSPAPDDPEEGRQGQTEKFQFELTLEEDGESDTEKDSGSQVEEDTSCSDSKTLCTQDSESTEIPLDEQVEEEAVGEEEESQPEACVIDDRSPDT

enzyme and uptake assay panel targets (Table 36) (Homo sapiens, UniProt Q13370), sequence (Q13370 whole entry): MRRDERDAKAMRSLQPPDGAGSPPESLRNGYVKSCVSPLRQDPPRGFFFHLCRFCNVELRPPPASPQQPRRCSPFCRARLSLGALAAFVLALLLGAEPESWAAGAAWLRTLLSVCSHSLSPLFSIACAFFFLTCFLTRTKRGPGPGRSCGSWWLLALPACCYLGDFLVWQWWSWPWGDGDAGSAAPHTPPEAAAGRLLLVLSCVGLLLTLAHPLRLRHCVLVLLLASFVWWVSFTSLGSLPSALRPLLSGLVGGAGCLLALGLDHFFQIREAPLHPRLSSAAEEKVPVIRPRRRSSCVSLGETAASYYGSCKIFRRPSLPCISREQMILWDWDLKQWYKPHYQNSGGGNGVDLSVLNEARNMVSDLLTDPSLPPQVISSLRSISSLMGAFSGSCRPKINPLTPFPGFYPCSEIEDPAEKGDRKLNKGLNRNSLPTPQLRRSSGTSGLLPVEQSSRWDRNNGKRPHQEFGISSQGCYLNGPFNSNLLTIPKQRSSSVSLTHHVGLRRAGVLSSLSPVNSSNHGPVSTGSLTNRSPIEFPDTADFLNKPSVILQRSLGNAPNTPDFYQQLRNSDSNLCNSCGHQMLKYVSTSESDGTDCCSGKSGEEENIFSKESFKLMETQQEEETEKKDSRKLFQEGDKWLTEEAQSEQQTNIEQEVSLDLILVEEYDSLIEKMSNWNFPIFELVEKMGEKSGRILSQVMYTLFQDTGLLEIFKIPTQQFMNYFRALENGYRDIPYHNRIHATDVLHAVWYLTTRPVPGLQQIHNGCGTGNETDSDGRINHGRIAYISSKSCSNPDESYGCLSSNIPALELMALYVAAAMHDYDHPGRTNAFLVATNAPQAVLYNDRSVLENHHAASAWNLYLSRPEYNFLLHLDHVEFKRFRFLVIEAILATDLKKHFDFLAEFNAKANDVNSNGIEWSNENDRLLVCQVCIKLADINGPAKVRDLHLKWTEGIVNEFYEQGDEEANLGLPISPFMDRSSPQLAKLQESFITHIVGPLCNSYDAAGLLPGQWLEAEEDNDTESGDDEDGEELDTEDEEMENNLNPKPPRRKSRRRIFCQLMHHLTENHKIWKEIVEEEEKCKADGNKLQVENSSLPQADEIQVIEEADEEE

[2H]C([2H])([2H])C(O)(c1nc2ccc(Cl)cc2cc1N)C([2H])([2H])[2H] [Compound I-1]
% inhibition of Control Values 1st [1]: 0.9%
% inhibition of Control Values 2nd [1]: −4.5%
% inhibition of Control Values Mean [1]: −1.8%
% inhibition of Control Values 1st [2]: 4.9%
% inhibition of Control Values 2nd [2]: −2.4%
% inhibition of Control Values Mean [2]: 1.3%
% inhibition of Control Values 1st [3]: 20.1%
% inhibition of Control Values 2nd [3]: −2.6%
% inhibition of Control Values Mean [3]: 8.8%
% inhibition of Control Values 1st [4]: 12.8%
% inhibition of Control Values 2nd [4]: 3.0%
% inhibition of Control Values Mean [4]: 7.9%
% inhibition of Control Values 1st [5]: 5.2%
% inhibition of Control Values 2nd [5]: −0.4%
% inhibition of Control Values Mean [5]: 2.4%
% inhibition of Control Values 1st [6]: 23.8%
% inhibition of Control Values 2nd [6]: 26.2%
% inhibition of Control Values Mean [6]: 25.0%
% inhibition of Control Values 1st [7]: 127.6%
% inhibition of Control Values 2nd [7]: 131.0%
% inhibition of Control Values Mean [7]: 129.3%
% inhibition of Control Values 1st [8]: −17.7%
% inhibition of Control Values 2nd [8]: −35.7%
% inhibition of Control Values Mean [8]: −26.7%
% inhibition of Control Values 1st [9]: 16.6%
% inhibition of Control Values 2nd [9]: 4.8%
% inhibition of Control Values Mean [9]: 10.7%
% inhibition of Control Values 1st [10]: −3.2%
% inhibition of Control Values 2nd [10]: −3.1%
% inhibition of Control Values Mean [10]: −3.2%
inhibition at 10 µM ([11]; read-out: % inhibition of Control Values 1st): -3.1%
inhibition at 10 µM ([11]; read-out: % inhibition of Control Values 2nd): 15.6%
inhibition at 10 µM ([11]; read-out: % inhibition of Control Values Mean): 6.3%
% inhibition of Control Values 1st [12]: 2.8%
% inhibition of Control Values 2nd [12]: −2.0%
% inhibition of Control Values Mean [12]: 0.4%
% inhibition of Control Values 1st [13]: −3.1%
% inhibition of Control Values 2nd [13]: −3.7%
% inhibition of Control Values Mean [13]: −3.4%
% inhibition of Control Values 1st [14]: 5.8%
% inhibition of Control Values 2nd [14]: 14.7%
% inhibition of Control Values Mean [14]: 10.3%
% inhibition of Control Values 1st [15]: 0.2%
% inhibition of Control Values 2nd [15]: −6.5%
% inhibition of Control Values Mean [15]: −3.1%
% inhibition of Control Values 1st [16]: 45.3%
% inhibition of Control Values 2nd [16]: 10.7%
% inhibition of Control Values Mean [16]: 28.0%
% inhibition of Control Values 1st [17]: −15.1%
% inhibition of Control Values 2nd [17]: −7.9%
% inhibition of Control Values Mean [17]: −11.5%
% inhibition of Control Values 1st [18]: −4.1%
% inhibition of Control Values 2nd [18]: −5.7%
% inhibition of Control Values Mean [18]: −4.9%
% inhibition of Control Values 1st [19]: 0.4%
% inhibition of Control Values 2nd [19]: 1.5%
% inhibition of Control Values Mean [19]: 1.0%
% inhibition of Control Values 1st [20]: 23.5%
% inhibition of Control Values 2nd [20]: 24.8%
% inhibition of Control Values Mean [20]: 24.2%
% inhibition of Control Values 1st [21]: 15.9%
% inhibition of Control Values 2nd [21]: 16.9%
% inhibition of Control Values Mean [21]: 16.4%

CC(C)(O)c1nc2ccc(Cl)cc2cc1N [NS2, 2-(3-amino-6-chloroquinolin-2-yl)propan-2-ol]
metabolite profile (monkey hepatocytes; NS2, 120 min, monkey hepatocytes): metabolized to M1, M3, M4, M7, M8, and a low amount of M9, with some unchanged NS2 remaining; also recorded: a mono-oxidation metabolite (M), four oxidation+glucuronidation metabolites (M3, M4, M7, and M9), and a glucuronidation metabolite (M)
Peak Areas Cyno Monkey (monkey hepatocytes; cynomolgus monkey, 120 min, 3 μM): 1.74E+08
